# Test results: article PMC6792352, “Limited Chemical Structural Diversity Found to Modulate Thyroid Hormone Receptor in the Tox21 Chemical Library” (Environmental Health Perspectives, 2019)
# Structures can show the parent of a compound that is named as a salt.
# Assay: in vitro
# Details: rat, gh3-tre-luc cells, AC50 (uM) modified / 1000
row,Structure (SMILES),CC50 at 24 h
1,CCCCC(CC)COC(C)=O (centres unmarked) [2-Ethylhexyl acetate],> 90 µM
2,CCN(CC#N)c1cccc(C)c1 [2-(Ethyl(3-methylphenyl)amino)acetonitrile],> 90 µM
3,CCO[Si](CCC1CCC2OC2C1)(OCC)OCC (centres unmarked) [Triethoxy[2-(7-oxabicyclo[4.1.0]hept-3-yl)ethyl]silane],> 90 µM
4,O=C(O)CC(Cl)C(=O)O (centres unmarked) [Chlorobutanedioic acid],> 90 µM
5,CC(=O)N[C@@H](CCC(N)=O)C(=O)O [Nalpha-Acetyl-L-glutamine],> 50 µM
6,O=S(=O)(O)c1cc(O)c2c(/N=N/c3ccc(Nc4ccccc4)c4c(S(=O)(=O)O)cccc34)cc(S(=O)(=O)O)cc2c1 [Anazolene sodium],22.8 µM
7,"CC(C)(N=C=O)c1cccc(C(C)(C)N=C=O)c1 [1,3-Bis(2-isocyanato-2-propyl)benzene]",78.6 µM
8,N=C(N)NCC1COc2ccccc2O1 (centres unmarked) [Guanoxan],> 50 µM
9,Cc1ccc(=O)n(-c2ccccc2)c1 [Pirfenidone],> 50 µM
10,C=CCOC(=O)CC(C)C [Allyl isovalerate],> 90 µM
11,C1CCC2CCCCC2C1 (centres unmarked) [Decalin],> 90 µM
12,CC1(C)C2C(=O)CCC(C)(C)[C@]23CC[C@H]1C3 (some centres unmarked) [Isolongifolanone],> 90 µM
13,Cc1cc(C(C)(C)C)c(O)c(C)c1Cn1c(=O)n(Cc2c(C)cc(C(C)(C)C)c(O)c2C)c(=O)n(Cc2c(C)cc(C(C)(C)C)c(O)c2C)c1=O [Cyanox CY 1790],> 90 µM
14,Cc1ccc2ncccc2c1 [6-Methylquinoline],> 90 µM
15,"CC(Cc1ccc(C(C)(C)C)cc1)CN1C[C@@H](C)O[C@@H](C)C1 (stereo partly drawn) [(2R,6S)-Fenpropimorph]",> 90 µM
16,Nc1ccc2cc(S(=O)(=O)O)cc(O)c2c1N=Nc1ccccc1C(F)(F)F [Acid Red 337],89.3 µM
17,COCC(C)N (centres unmarked) [1-Methoxy-2-propylamine],> 90 µM
18,N[C@@H](COP(=O)(O)O)C(=O)O [Dexfosfoserine],> 50 µM
19,"CC(CO)(CO)CO [2-(Hydroxymethyl)-2-methyl-1,3-propanediol]",> 90 µM
20,COC1=C(OC)C(=O)C(C/C=C(\C)CC/C=C(\C)CC/C=C(\C)CC/C=C(\C)CC/C=C(\C)CC/C=C(\C)CC/C=C(\C)CC/C=C(\C)CC/C=C(\C)CCC=C(C)C)=C(C)C1=O [Ubidecarenone],> 50 µM
21,CCOc1ccc(/N=N/c2ccc(N)cc2N)cc1 [Ethoxazene],> 50 µM
22,"CC(O)COCC(C)O (centres unmarked) [1,1'-Oxybis-2-propanol]",> 90 µM

row,Structure (SMILES),CC50 at 24 h
1,COC1=CC(=O)O[C@@H](/C=C/c2ccc3c(c2)OCO3)C1 [Methysticin],> 90 µM
2,"CCCCCCCCCCCCCCCCCC[N+](C)(C)CCC[Si](OC)(OC)OC [N,N-Dimethyl-N-(3-(trimethoxysilyl)propyl) octadecan-1-aminium chloride]",> 50 µM
3,CCc1oc2ccccc2c1C(=O)c1cc(I)c(O)c(I)c1 [Benziodarone],24.8 µM
4,"CC1=CC(C)C(C=O)CC1 (centres unmarked) [2,4-Dimethyl-3-cyclohexene-1-carboxaldehyde]",> 90 µM
5,O=C1Nc2ccc(Cl)cc2C(c2ccccc2Cl)=NC1O (centres unmarked) [Lorazepam],> 50 µM
6,O=c1[nH]c(=O)n([C@H]2C[C@H](O)[C@@H](CO)O2)cc1/C=C/Br [Brivudine],> 50 µM
7,CC(=C(CCO)SSCC1CCCO1)N(C=O)Cc1cnc(C)nc1N (stereo in doubt) [Fursultiamine hydrochloride],> 50 µM
8,C=Cc1ccccc1C=C [Divinylbenzene],> 400 µM
9,COC(=O)CCCCCCCCC(=O)OC [Dimethyl decanedioate],> 90 µM
10,Cc1noc(NS(=O)(=O)c2ccc(N)cc2)c1C [Sulfisoxazole],> 50 µM
11,C[C@@H]1C[C@H]2[C@@H]3CCC4=CC(=O)C=C[C@]4(C)[C@@]3(F)[C@@H](O)C[C@]2(C)[C@@]1(O)C(=O)CO [Dexamethasone],> 90 µM
12,CCCCCCCCCI [1-Iodononane],> 90 µM
13,OC(c1ccccc1)(c1ccccc1)C1CN2CCC1CC2 (centres unmarked) [Quifenadine],35.6 µM
14,CCCCOC(=O)CCCCCCCCC(=O)OCCCC [Dibutyl decanedioate],> 90 µM
15,NCCNCCNCCN [Triethylenetetramine],> 90 µM
16,CN(C)CCO [Dimethylaminoethanol],> 90 µM
17,CCN(CC)CCC(=O)N1c2ccccc2Sc2ccc(C(F)(F)F)cc21 [Fluacizine],20.5 µM
18,O=C1O[C@H]([C@@H](O)CO)C(O)=C1O [L-Ascorbic acid],> 90 µM
19,Cc1onc(-c2c(F)cccc2Cl)c1C(=O)N[C@@H]1C(=O)N2[C@@H]1SC(C)(C)[C@@H]2C(=O)O [Floxacillin sodium salt],> 50 µM
20,N=C(N)NCCC[C@H](N)C(=O)O [L-Arginine],> 50 µM
21,CC(C(=O)O)c1cccc(C(=O)c2ccccc2)c1 (centres unmarked) [Ketoprofen],> 90 µM
22,CC(=O)OCC(C)OC(C)=O (centres unmarked) [Propylene glycol diacetate],> 90 µM

row,Structure (SMILES),CC50 at 24 h
1,O=c1c(O)c(O)c1=O [Squaric acid],> 90 µM
2,C[Si](C)(C)O[Si](C)(C)O[Si](C)(C)C [Octamethyltrisiloxane],> 90 µM
3,CC(CN(C)C)CN1c2ccccc2CCc2ccccc21 (centres unmarked) [Trimipramine maleate],4.77 µM
4,C1=CC2C3C=CC(C3)C2C1 (centres unmarked) [Dicyclopentadiene],> 90 µM
5,"OCCOCC#CCOCCO [1,4-Bis(2-hydroxyethoxy)-2-butyne]",> 90 µM
6,CCC(CC)CO [2-Ethyl-1-butanol],> 90 µM
7,CC(C)Cc1ccc([C@H](C)C(=O)O)cc1 [Dexibuprofen],> 50 µM
8,CC(C)(C)C(O)/C(=C\c1ccc(Cl)cc1Cl)n1cncn1 (centres unmarked) [Diniconazole],73.4 µM
9,NC(=O)OCC(O)COc1ccc(Cl)cc1 (centres unmarked) [Chlorphenesin carbamate],> 20 µM
10,"CC(=O)CCC(C)=O [2,5-Hexanedione]",> 90 µM
11,CN(C(=O)CO)c1c(I)c(C(=O)NCC(O)CO)c(I)c(C(=O)NCC(O)CO)c1I (centres unmarked) [Iomeprol],> 50 µM
12,C=CCCCCCCCCOC(C)=O [9-Decenyl acetate],> 90 µM
13,"CCc1cnc(C(=O)O)c(C(=O)O)c1 [5-Ethyl-2,3-pyridinedicarboxylic acid]",> 100 µM
14,O=C(O)CCCCCC(=O)O [Heptanedioic acid],> 90 µM
15,C=C(C)C(=O)OCCOc1ccccc1 [Ethylene glycol phenyl ether methacrylate],> 90 µM
16,O=c1c(-c2ccc(O)cc2)coc2cc(O)ccc12 [Daidzein],> 90 µM
17,"C1=C\CC/C=C/CC/C=C/CC/1 [1,5,9-Cyclododecatriene]",> 90 µM
18,CNC(=O)[C@H](Cc1c[nH]c2ccccc12)NC(=O)[C@@H](CC(=O)NO)CC(C)C [Ilomastat],1.28 µM
19,CCc1cccc(CC)c1NC(=O)CN(CC(=O)O)CC(=O)O [Etifenin],> 20 µM
20,CC(CN)CCCN (centres unmarked),> 90 µM
21,CC(C)CCOC(=O)CC(C)C [3-Methylbutyl 3-methylbutanoate],> 90 µM

# Same assay, conditions: rat, gh3-tre-luc cells, AC50 (uM) modified / 1000, Tox21_110001=Tox21_111521; viability, 1 nM T3 present, 24 h
row,Structure (SMILES),CC50 at 24 h
1,C[C@@H]([C@H](O)c1ccccc1)N(C)C [Methylephedrine],> 50 µM

# Same assay, conditions: rat, gh3-tre-luc cells, AC50 (uM) modified / 1000, Tox21_110001=Tox21_111742; viability, 1 nM T3 present, 24 h
row,Structure (SMILES),CC50 at 24 h
1,c1cc2c(c(N3CCNCC3)c1)OCCO2 [Eltoprazine hydrochloride],> 50 µM

# Same assay, conditions: rat, gh3-tre-luc cells, AC50 (uM) modified / 1000, Tox21_110001=Tox21_112831; viability, 1 nM T3 present, 24 h
row,Structure (SMILES),CC50 at 24 h
1,CC[C@H](OC(C)=O)C(C[C@H](C)NC)(c1ccccc1)c1ccccc1 [L-alpha-Acetyl-N-normethadol hydrochloride],17.4 µM

# Same assay, conditions: rat, gh3-tre-luc cells, AC50 (uM) modified / 1000, Tox21_110001=Tox21_112882; viability, 1 nM T3 present, 24 h
row,Structure (SMILES),CC50 at 24 h
1,c1ccc(CN2CCNCC2)cc1 [1-Benzylpiperazine difumarate],> 200 µM

# Same assay, conditions: rat, gh3-tre-luc cells, AC50 (uM) modified / 1000, Tox21_110001=Tox21_200790; viability, 1 nM T3 present, 24 h
row,Structure (SMILES),CC50 at 24 h
1,ClCBr [Bromochloromethane],> 100 µM

# Same assay, conditions: rat, gh3-tre-luc cells, AC50 (uM) modified / 1000, Tox21_110001=Tox21_200984; viability, 1 nM T3 present, 24 h
row,Structure (SMILES),CC50 at 24 h
1,C=CC=O [Acrolein],> 90 µM

# Same assay, conditions: rat, gh3-tre-luc cells, AC50 (uM) modified / 1000, Tox21_110001=Tox21_201114; viability, 1 nM T3 present, 24 h
row,Structure (SMILES),CC50 at 24 h
1,O=C(O)CCl [Chloroacetic acid],> 90 µM

# Same assay, conditions: rat, gh3-tre-luc cells, AC50 (uM) modified / 1000, Tox21_110001=Tox21_201813; viability, 1 nM T3 present, 24 h
row,Structure (SMILES),CC50 at 24 h
1,"CN(C)c1ccccc1 [N,N-Dimethylaniline]",> 90 µM

# Same assay, conditions: rat, gh3-tre-luc cells, AC50 (uM) modified / 1000, Tox21_110001=Tox21_202204; viability, 1 nM T3 present, 24 h
row,Structure (SMILES),CC50 at 24 h
1,COP(=O)(NC(C)=O)SC (centres unmarked) [Acephate],> 90 µM

# Same assay, conditions: rat, gh3-tre-luc cells, AC50 (uM) modified / 1000, Tox21_110001=Tox21_202829; viability, 1 nM T3 present, 24 h
row,Structure (SMILES),CC50 at 24 h
1,CC[C@H](N)c1ccccc1 [(S)-(-)-1-Amino-1-phenylpropane],> 90 µM

# Same assay, conditions: rat, gh3-tre-luc cells, AC50 (uM) modified / 1000, Tox21_110001=Tox21_300036; viability, 1 nM T3 present, 24 h
row,Structure (SMILES),CC50 at 24 h
1,"CN(C)c1ccccc1 [N,N-Dimethylaniline]",> 100 µM

# Same assay, conditions: rat, gh3-tre-luc cells, AC50 (uM) modified / 1000, Tox21_110001=Tox21_300968; viability, 1 nM T3 present, 24 h
row,Structure (SMILES),CC50 at 24 h
1,CNC(=O)CSP(=O)(OC)OC [Omethoate],> 90 µM

# Same assay, conditions: rat, gh3-tre-luc cells, AC50 (uM) modified / 1000, Tox21_110001=Tox21_301078; viability, 1 nM T3 present, 24 h
row,Structure (SMILES),CC50 at 24 h
1,COP(=O)(OC)O/C(C)=C/C(=O)N(C)C [Dicrotophos],> 90 µM

# Same assay, conditions: rat, gh3-tre-luc cells, AC50 (uM) modified / 1000, Tox21_110001=Tox21_301219; viability, 1 nM T3 present, 24 h
row,Structure (SMILES),CC50 at 24 h
1,CCCSP(=S)(OCC)Oc1ccc(Cl)cc1Cl (centres unmarked) [Prothiofos],> 90 µM

# Same assay, conditions: rat, gh3-tre-luc cells, AC50 (uM) modified / 1000, Tox21_110001=Tox21_400075; viability, 1 nM T3 present, 24 h
row,Structure (SMILES),CC50 at 24 h
1,COc1ccc(C(c2ccc(OC)cc2)C(Cl)(Cl)Cl)cc1 [Methoxychlor],76.1 µM
